The values below come from ChEMBL document CHEMBL5390237, “Discovery of Selective Histone Deacetylase 1 and 2 Inhibitors: Screening of a Focused Library Constructed by Click Chemistry, Kinetic Binding Analysis, and Biological Evaluation” (J Med Chem, 2023).

A word on the inhibition: it is the drop in the measured response relative to a control, in per cent.

For this assay, the target named is Histone deacetylase 2 (Homo sapiens, UniProt Q92769). Put plainly: Inhibition of full-length recombinant human C-terminal GST tagged HDAC2 expressed in Sf9 insect cells using aminoluciferin peptide substrate at 100 nM preincubated for 3 hrs followed by substrate addition and measured after 30 mins by HDAC-Glo I/II chemiluminescence assay. Particulars: time 3.5 hrs.
Histone deacetylase 2, sequence (Q92769 whole entry): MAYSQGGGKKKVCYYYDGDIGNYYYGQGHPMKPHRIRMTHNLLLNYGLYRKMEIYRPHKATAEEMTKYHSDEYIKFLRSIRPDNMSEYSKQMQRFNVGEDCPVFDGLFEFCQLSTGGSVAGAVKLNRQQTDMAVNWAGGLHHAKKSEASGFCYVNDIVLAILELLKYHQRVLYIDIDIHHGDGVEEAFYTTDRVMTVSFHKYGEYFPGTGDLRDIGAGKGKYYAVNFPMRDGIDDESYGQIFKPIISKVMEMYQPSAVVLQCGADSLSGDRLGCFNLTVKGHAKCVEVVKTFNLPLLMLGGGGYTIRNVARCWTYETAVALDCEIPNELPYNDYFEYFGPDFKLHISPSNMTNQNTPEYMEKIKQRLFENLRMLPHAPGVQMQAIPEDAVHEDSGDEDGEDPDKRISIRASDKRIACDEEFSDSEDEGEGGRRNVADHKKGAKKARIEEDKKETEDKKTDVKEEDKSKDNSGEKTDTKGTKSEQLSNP
For the molecule `Nc1ccc(-c2ccc(F)cc2)cc1NC(=O)c1cn(CCCCCCC(=O)O)nn1`, the inhibition turned out to be 23%.
Under `Nc1ccc(-c2cccs2)cc1NC(=O)CCc1cn(CCc2ccc(F)cc2)nn1` stands 11%; under `Nc1ccc(-c2ccccc2)cc1NC(=O)c1cn(CCc2ccccc2)nn1`, 12%; under `Nc1ccc(-c2ccc(F)cc2)cc1NC(=O)CCc1cn(-c2ccc(I)cc2)nn1`, 0%.
In the case of `COc1ccc(-n2cc(C(=O)Nc3cc(-c4cccs4)ccc3N)nn2)cc1`, the inhibition is 6%.
Under `Cc1csc(CCn2cc(C(=O)Nc3cc(-c4cccs4)ccc3N)nn2)n1` stands 15%.
Under `Nc1ccc(-c2ccsc2)cc1NC(=O)CCc1cn(CCc2cccc3ccccc23)nn1` stands 0%; under `Nc1ccc(-c2cccs2)cc1NC(=O)CCc1cn(Cc2ccc3ccccc3c2)nn1`, 30%.
Under `Nc1ccc(-c2cccs2)cc1NC(=O)c1cn(-c2ccccc2-c2ccccc2)nn1` stands 0%; under `Nc1ccc(-c2cccs2)cc1NC(=O)c1cccc(-c2cn(Cc3ccc4ccccc4n3)nn2)c1`, 4%.
For `Nc1ccc(-c2ccc(F)cc2)cc1NC(=O)CCc1cn(Cc2cc3ccccc3s2)nn1`, the inhibition is 3%.
Next, `Nc1ccc(-c2ccc(F)cc2)cc1NC(=O)CCc1cn(/C=C/c2ccccc2)nn1`: 3%.
Next, `Nc1ccc(-c2cccnc2)cc1NC(=O)CCc1cn(CCN2CCOCC2)nn1`: 0%; `Nc1ccc(-c2cccs2)cc1NC(=O)c1ccc(-c2cn(CCc3cccc4ccccc34)nn2)s1`: 0%.
With `Cc1csc(CCn2cc(-c3ccc(C(=O)Nc4cc(-c5cccs5)ccc4N)s3)nn2)n1`, the inhibition stood at 74%.
Turning to `Nc1ccc(-c2cccs2)cc1NC(=O)CCc1cn(Cc2nc3ccccc3[nH]2)nn1`, the inhibition was found to be 19%.
Next, `Cc1csc(CCn2cc(-c3cccc(C(=O)Nc4cc(-c5cccs5)ccc4N)c3)nn2)n1`: 24%; `Nc1ccc(-c2ccc(F)cc2)cc1NC(=O)CCc1cn(Cc2ccc(-c3ccccc3)cc2)nn1`: 0%.
Under `Nc1ccc(-c2ccsc2)cc1NC(=O)c1cn(CCc2ccc(Cl)cc2)nn1` stands 0%.
Next, `Nc1ccc(-c2cccs2)cc1NC(=O)CCc1cn(-c2cccc3ccccc23)nn1`: 0%.
For the molecule `Nc1ccc(-c2ccsc2)cc1NC(=O)c1cn(CCC23CC4CC(CC(C4)C2)C3)nn1`, the inhibition is 0%.
Next, `Nc1ccc(-c2ccsc2)cc1NC(=O)CCc1cn(-c2ccc(O)cc2)nn1`: 16%.
Under `Nc1ccc(-c2ccccc2)cc1NC(=O)CCc1cn(CCCCC(=O)O)nn1` stands 0%; under `Nc1ccc(-c2cccs2)cc1NC(=O)c1ccc(-c2cn(CCCCCCC(=O)O)nn2)s1`, 28%; under `Nc1ccc(-c2ccc(F)cc2)cc1NC(=O)c1cn(CCc2cccc3ccccc23)nn1`, 0%.
Consider `Nc1ccc(-c2ccc(F)cc2)cc1NC(=O)CCc1cn(CCc2cccc(C(F)(F)F)c2)nn1`, for which the inhibition stood at 11%.
Under `Nc1ccc(-c2cccs2)cc1NC(=O)c1cn(-c2ccc(O)cc2)nn1` stands 0%; under `Nc1ccc(-c2ccsc2)cc1NC(=O)c1cn(CCC2CCCC2)nn1`, 0%.
Under `Nc1ccc(-c2ccsc2)cc1NC(=O)c1cn(CCc2ccccc2[N+](=O)[O-])nn1` stands 2%; under `Nc1ccc(-c2ccsc2)cc1NC(=O)CCc1cn(-c2ccc(I)cc2)nn1`, 0%; under `Cc1ccc(-n2cc(C(=O)Nc3cc(-c4ccc(F)cc4)ccc3N)nn2)cc1C`, 11%.
Under `Nc1ccc(-c2ccsc2)cc1NC(=O)c1cn(Cc2ccc(C(=O)O)cc2)nn1` stands 49%.
Turning to `Nc1ccc(-c2cccs2)cc1NC(=O)c1ccc(-c2cn(CC(=O)c3ccccc3)nn2)s1`, the inhibition was found to be 22%.
As to `Nc1ccc(-c2ccc(F)cc2)cc1NC(=O)CCc1cn(CC(=O)Nc2ccc(F)cc2)nn1`, the inhibition worked out at 16%.
Under `Nc1ccc(-c2cccnc2)cc1NC(=O)CCc1cn(Cc2ccc(-c3ccccc3)cc2)nn1` stands 8%; under `Nc1ccc(-c2cccs2)cc1NC(=O)c1ccc(-c2cn(CCc3c[nH]c4ccccc34)nn2)cc1`, 19%.
Next, `COc1ccccc1CCn1cc(C(=O)Nc2cc(-c3ccsc3)ccc2N)nn1`: 0%; `Nc1ccc(-c2cccs2)cc1NC(=O)c1cccc(-c2cn(CCc3c[nH]c4ccccc34)nn2)c1`: 6%; `Nc1ccc(-c2ccccc2)cc1NC(=O)c1cn(CCc2ccc(F)cc2)nn1`: 0%.
Under `Nc1ccc(-c2cccnc2)cc1NC(=O)CCc1cn(CCc2ccccc2C(F)(F)F)nn1` stands 0%.
Consider `Nc1ccc(-c2ccsc2)cc1NC(=O)CCc1cn(CCCCCC(=O)O)nn1`, for which the inhibition worked out at 0%.
Next, `Nc1ccc(-c2ccsc2)cc1NC(=O)CCc1cn(Cc2ccc(-c3ccccc3)cc2)nn1`: 0%.
Under `Nc1ccc(-c2cccnc2)cc1NC(=O)CCc1cn(-c2ccc(O)cc2)nn1` stands 0%.
Under `Nc1ccc(-c2cccs2)cc1NC(=O)c1cn(CCc2cccc(Cl)c2)nn1` stands 2%; under `Cc1ccc(CCn2cc(-c3cccc(C(=O)Nc4cc(-c5cccs5)ccc4N)c3)nn2)cc1`, 4%; under `Nc1ccc(-c2ccc(F)cc2)cc1NC(=O)c1cn(Cc2ccc(C(=O)O)cc2)nn1`, 65%.
For `Nc1ccc(-c2ccc(F)cc2)cc1NC(=O)CCc1cn(CCc2cccc3ccccc23)nn1`, the inhibition turned out to be 0%.
Under `Nc1ccc(-c2ccsc2)cc1NC(=O)c1cn(CCCCCCCC(=O)O)nn1` stands 10%; under `Nc1ccc(-c2ccsc2)cc1NC(=O)CCc1cn(CCc2ccc(Cl)cc2)nn1`, 2%; under `Nc1ccc(-c2ccsc2)cc1NC(=O)c1cn(CCCCCc2ccccc2)nn1`, 0%.
Under `Nc1ccc(-c2cccs2)cc1NC(=O)c1cn(CCc2ccc(C(=O)O)cc2)nn1` stands 16%; under `Nc1ccc(-c2cccs2)cc1NC(=O)c1cn(CCc2ccc(C(F)(F)F)cc2)nn1`, 9%.
Under `Nc1ccc(-c2cccs2)cc1NC(=O)c1cn(Cc2ccc(OC(F)(F)F)cc2)nn1` stands 14%; under `Nc1ccc(-c2cccs2)cc1NC(=O)c1ccc(-c2cn(CC34CC5CC(CC(C5)C3)C4)nn2)s1`, 0%; under `Nc1ccc(-c2cccnc2)cc1NC(=O)CCc1cn(/C=C/c2ccccc2)nn1`, 7%.
Turning to `COc1ccccc1CCn1cc(CCC(=O)Nc2cc(-c3ccccc3)ccc2N)nn1`, the inhibition is 10%.
In the case of `CCc1ccc(Cn2cc(-c3cccc(C(=O)Nc4cc(-c5cccs5)ccc4N)c3)nn2)cc1`, the inhibition is 0%.
As to `Cc1csc(CCn2cc(-c3ccc(C(=O)Nc4cc(-c5cccs5)ccc4N)cc3)nn2)n1`, the inhibition turned out to be 68%.
Under `Nc1ccc(-c2cccs2)cc1NC(=O)c1ccc(-c2cn(-c3cccc4ccccc34)nn2)s1` stands 0%; under `Nc1ccc(-c2cccs2)cc1NC(=O)CCc1cn(CCCc2ccccc2)nn1`, 10%.
Next, `Nc1ccc(-c2ccsc2)cc1NC(=O)CCc1cn(CCc2ccc(C(=O)O)cc2)nn1`: 31%; `COc1ccc(Cn2cc(C(=O)Nc3cc(-c4cccs4)ccc3N)nn2)cc1`: 17%.
